{"source": "paper PMC3747596", "about": "(PLoS ONE, 2013)", "key": {"μ opioid receptor": {"target": "T1, μ opioid receptor (Homo sapiens, UniProt P35372)", "T1 construct": "expressed in transfected cells", "T1 sequence (P35372 whole entry)": "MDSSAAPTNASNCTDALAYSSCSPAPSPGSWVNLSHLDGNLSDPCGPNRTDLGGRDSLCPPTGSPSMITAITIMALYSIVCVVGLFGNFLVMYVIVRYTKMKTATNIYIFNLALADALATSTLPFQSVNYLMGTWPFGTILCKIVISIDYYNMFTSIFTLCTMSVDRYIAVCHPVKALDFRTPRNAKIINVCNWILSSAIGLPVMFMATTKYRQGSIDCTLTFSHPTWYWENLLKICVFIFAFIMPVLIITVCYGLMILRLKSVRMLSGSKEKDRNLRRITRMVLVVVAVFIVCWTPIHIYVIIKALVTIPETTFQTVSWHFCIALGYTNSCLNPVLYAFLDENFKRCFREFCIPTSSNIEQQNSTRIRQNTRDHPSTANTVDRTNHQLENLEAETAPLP", "experiment": "Radioligand displacement, μ", "type": "binding"}, "δ opioid receptor": {"target": "T2, δ opioid receptor (Homo sapiens, UniProt P41143)", "T2 construct": "expressed in transfected cells", "T2 sequence (P41143 whole entry)": "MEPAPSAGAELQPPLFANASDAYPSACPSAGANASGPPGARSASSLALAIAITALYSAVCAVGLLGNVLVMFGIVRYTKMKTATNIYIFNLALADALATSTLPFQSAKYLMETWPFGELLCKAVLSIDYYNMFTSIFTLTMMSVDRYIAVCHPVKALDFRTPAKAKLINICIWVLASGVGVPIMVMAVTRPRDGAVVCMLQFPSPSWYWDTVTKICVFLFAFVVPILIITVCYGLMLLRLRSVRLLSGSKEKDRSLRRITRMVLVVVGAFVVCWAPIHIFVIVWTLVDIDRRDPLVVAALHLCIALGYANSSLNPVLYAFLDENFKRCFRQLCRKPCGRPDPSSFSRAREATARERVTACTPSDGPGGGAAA", "experiment": "Radioligand displacement, δ", "type": "binding", "conditions": "K i, radioligand displacement (Table 1)"}, "M1-R": {"target": "M1-R (Homo sapiens, UniProt P11229)", "sequence (P11229 whole entry)": "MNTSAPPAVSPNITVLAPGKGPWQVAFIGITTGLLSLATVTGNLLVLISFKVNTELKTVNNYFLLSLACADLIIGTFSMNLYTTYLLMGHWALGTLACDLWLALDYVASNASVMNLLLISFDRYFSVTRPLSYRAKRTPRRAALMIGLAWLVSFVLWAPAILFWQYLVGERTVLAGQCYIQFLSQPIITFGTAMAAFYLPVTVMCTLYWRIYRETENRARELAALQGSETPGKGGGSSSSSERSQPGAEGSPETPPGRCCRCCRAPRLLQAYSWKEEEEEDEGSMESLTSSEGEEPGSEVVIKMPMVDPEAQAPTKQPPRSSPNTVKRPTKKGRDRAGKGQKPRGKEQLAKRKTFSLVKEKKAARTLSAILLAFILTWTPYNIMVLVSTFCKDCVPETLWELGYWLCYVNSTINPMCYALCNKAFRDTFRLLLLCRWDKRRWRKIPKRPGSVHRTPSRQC"}, "α1A-AR [1]": {"target": "T3, α1A-AR (Homo sapiens, UniProt P35348)", "T3 sequence (P35348 1-466)": "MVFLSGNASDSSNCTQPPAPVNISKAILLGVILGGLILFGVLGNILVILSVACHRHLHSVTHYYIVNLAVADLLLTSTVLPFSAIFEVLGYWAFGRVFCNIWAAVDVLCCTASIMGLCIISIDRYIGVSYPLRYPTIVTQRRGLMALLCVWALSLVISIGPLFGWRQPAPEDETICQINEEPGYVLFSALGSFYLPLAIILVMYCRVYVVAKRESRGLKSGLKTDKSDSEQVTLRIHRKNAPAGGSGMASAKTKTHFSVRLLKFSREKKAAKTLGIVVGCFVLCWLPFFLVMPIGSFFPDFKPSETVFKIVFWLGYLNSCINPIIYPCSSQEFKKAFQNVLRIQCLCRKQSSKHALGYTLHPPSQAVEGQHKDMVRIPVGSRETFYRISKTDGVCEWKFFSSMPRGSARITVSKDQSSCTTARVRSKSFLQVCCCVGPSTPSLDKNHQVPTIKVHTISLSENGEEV", "experiment": "PI hydrolysis assay, α1A-AR", "conditions": "hydrolysis of phosphatidylinositol 4,5-bisphosphate (PI)"}, "α1A-AR [2]": {"target": "T3, α1A-AR", "experiment": "Intracellular calcium mobilization assay, α1A-AR"}, "[3]": {"target": "non-opioid receptors and transporters", "experiment": "Radioligand displacement panel, non-opioid targets", "conditions": "read-out: K i for all non-opioid targets; 43 non-opioid targets"}, "human NOP": {"target": "T4, human NOP (Homo sapiens, UniProt P41146)", "T4 construct": "expressed in transfected cells; host or cells: HEK293T", "T4 sequence (P41146 whole entry)": "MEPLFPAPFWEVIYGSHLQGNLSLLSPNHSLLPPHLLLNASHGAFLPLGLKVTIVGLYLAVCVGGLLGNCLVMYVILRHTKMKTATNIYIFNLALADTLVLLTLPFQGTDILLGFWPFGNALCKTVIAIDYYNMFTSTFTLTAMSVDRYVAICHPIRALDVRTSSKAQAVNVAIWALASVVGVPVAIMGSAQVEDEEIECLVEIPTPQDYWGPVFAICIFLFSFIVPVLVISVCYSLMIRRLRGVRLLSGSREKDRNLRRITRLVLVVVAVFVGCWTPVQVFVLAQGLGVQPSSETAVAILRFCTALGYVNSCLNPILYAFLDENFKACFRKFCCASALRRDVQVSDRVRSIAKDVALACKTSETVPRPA", "experiment": "Inhibition of cyclic AMP production by N/OFQ, GloSensor assay in HEK293T cells", "type": "cell-based"}, "κ-OR": {"system": "κ-OR", "parameters": "method as in ref 3 = [3]; 3 Béguin C, Cohen BM (2009) Medicinal Chemistry of Kappa Opioid Receptor Antagonists. In: Dean RL, Bilsky EJ, Negus SS, editors. Opiate Receptors and Antagonists: from Bench to Clinic. New York: Human", "conditions": "cited from earlier work"}, "[4]": {"target": "N-methyl-D-aspartate (NMDA) receptor", "parameters": "method as in PMID 7681005", "conditions": "[3H]CGP-39,653, glutamate site; cited from earlier work"}, "[5]": {"target": "nociceptin/orphanin FQ receptor (NOP)", "parameters": "method as in PMID 8943250", "conditions": "cited from earlier work"}, "[6]": {"system": "nociceptin/orphanin FQ receptor (NOP)", "parameters": "method as in PMID 11510482", "conditions": "at 10 µM; cited from earlier work"}}, "data": [{"smiles": "N=C(N)Nc1ccc2[nH]c3c(c2c1)C[C@@]1(O)[C@H]2Cc4ccc(O)c5c4[C@@]1(CCN2CC1CC1)[C@H]3O5", "note": "[GNTI, 5′-guanidinonaltrindole]", "values": [{"measurement": "Ki", "setting": "μ opioid receptor", "value": 54, "unit": "nM"}, {"measurement": "Ki", "setting": "δ opioid receptor", "value": 58, "unit": "nM"}, {"measurement": "K B", "setting": "M1-R; antagonism of acetylcholine, calcium mobilization, 95% CI = 3.2 to 4.3 µM", "value": 3.7, "unit": "µM"}, {"measurement": "activation of M1-R", "setting": "M1-R; calcium mobilization", "value": "did not activate M1-R"}, {"measurement": "selectivity for κ-OR over M1-R", "setting": "M1-R; functional potency at κ-OR (ref 3) versus K B at M1-R", "value": "> 3,000 fold"}, {"measurement": "effect on maximal response to noradrenaline, PI hydrolysis", "setting": "α1A-AR [1]", "value": "slightly reduced the maximal response to noradrenaline"}, {"measurement": "EC50", "setting": "α1A-AR [2]", "value": 41, "unit": "nM"}, {"measurement": "activation of α1A-AR / inhibition of activation by noradrenaline", "setting": "α1A-AR [2]; calcium mobilization, GNTI 30 µM", "value": "neither activated α1A-AR nor inhibited activation by noradrenaline"}, {"measurement": "Emax", "setting": "α1A-AR [2]; read-out: increase of the maximal response to noradrenaline", "value": "≤ 20", "unit": "%"}, {"measurement": "Ki", "setting": "[3]", "value": "> 2000", "unit": "nM"}]}, {"smiles": "CC(C)[C@@H](CN1CC[C@@](C)(c2cccc(O)c2)[C@@H](C)C1)NC(=O)[C@H]1Cc2ccc(O)cc2CN1", "note": "[JDTic]", "values": [{"measurement": "K B equivalent to the pA2 for a competitive antagonist", "setting": "human NOP; 95% CI = 4.6 to 1,200 nM", "value": 73, "unit": "nM"}, {"measurement": "effect on maximally-effective concentrations of N/OFQ (>100 nM)", "setting": "human NOP; JDTic 30 µM", "value": "not affected"}, {"measurement": "Kb", "setting": "human NOP; antagonism of N/OFQ, inhibition of cyclic AMP production, read-out: pA2 (converted)", "value": 79.4, "unit": "nM"}, {"measurement": "K e in κ-OR functional assays", "setting": "κ-OR", "value": "< 20", "unit": "pM"}]}, {"smiles": "Oc1ccc2c3c1O[C@H]1c4[nH]c5c(c4C[C@@]4(O)[C@@H](C2)N(CC2CC2)CC[C@]314)C[C@@]1(O)[C@H]2Cc3ccc(O)c4c3[C@@]1(CCN2CC1CC1)[C@H]5O4", "note": "[nor-BNI, Nor-binaltorphimine]", "values": [{"measurement": "Ki", "setting": "[4]", "value": "> 1000", "unit": "nM"}, {"measurement": "Ki", "setting": "[5]", "value": 780, "unit": "nM"}, {"measurement": "binding to NOP", "setting": "[6]", "value": "no binding"}]}]}
